Assay results as given in the supplement of paper PMC10307832.

Columns and labels:
Assay in all cases: relative viability (nuclei count vs DMSO), 5 days (fraction); higher = more cells survive
AGI-6780 + Bortezomib = compound: O=C(Nc1cccc(C(F)(F)F)c1)Nc1cc(S(=O)(=O)NC2CC2)ccc1-c1ccsc1 [AGI-6780] + CC(C)C[C@H](NC(=O)[C@H](Cc1ccccc1)NC(=O)c1cnccn1)B(O)O [Bortezomib] (partner 0.002 µM)
Summary of the method: (§1)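 Nuclei were stained with Hoechst during a one-step fixation (final 0.05% Triton X-100, 1% formaldehyde, 1 ug/ml Hoechst) carried out 5 days after dosing, then counted on 4× images. The cells, lung cancer lines in 1536-well plates, had been dosed by pin tool the day after seeding with one drug alone or a fixed anchor-drug dose plus five library-drug doses (not always all listed) in √10 steps. Relative viability is the nuclei count in treated wells divided by that in vehicle wells, and each value is the median of duplicate plates.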

AGI-6780 + Pemetrexed = compound: O=C(Nc1cccc(C(F)(F)F)c1)Nc1cc(S(=O)(=O)NC2CC2)ccc1-c1ccsc1 [AGI-6780] + Nc1nc2[nH]cc(CCc3ccc(C(=O)N[C@@H](CCC(=O)O)C(=O)O)cc3)c2c(=O)[nH]1 [Pemetrexed] (partner 0.2 µM)
Summary of the method: as §1

AGI-6780 + Olaparib = compound: O=C(Nc1cccc(C(F)(F)F)c1)Nc1cc(S(=O)(=O)NC2CC2)ccc1-c1ccsc1 [AGI-6780] + O=C(c1cc(Cc2n[nH]c(=O)c3ccccc23)ccc1F)N1CCN(C(=O)C2CC2)CC1 [Olaparib] (partner 8 µM)
Summary of the method: as §1

AGI-6780 + Alpelisib = compound: O=C(Nc1cccc(C(F)(F)F)c1)Nc1cc(S(=O)(=O)NC2CC2)ccc1-c1ccsc1 [AGI-6780] + Cc1nc(NC(=O)N2CCC[C@H]2C(N)=O)sc1-c1ccnc(C(C)(C)C(F)(F)F)c1 [Alpelisib] (partner 2 µM)
Summary of the method: as §1

| Cell Line | relative viability (AGI-6780 + Bortezomib; first compound 0.08 µM) | relative viability (AGI-6780 + Bortezomib; first compound 0.253 µM) | relative viability (AGI-6780 + Bortezomib; first compound 0.8 µM) | relative viability (AGI-6780 + Bortezomib; first compound 2.53 µM) | relative viability (AGI-6780 + Bortezomib; first compound 8 µM) | relative viability (AGI-6780 + Pemetrexed; first compound 0.08 µM) | relative viability (AGI-6780 + Pemetrexed; first compound 0.253 µM) | relative viability (AGI-6780 + Pemetrexed; first compound 0.8 µM) | relative viability (AGI-6780 + Pemetrexed; first compound 2.53 µM) | relative viability (AGI-6780 + Pemetrexed; first compound 8 µM) | relative viability (AGI-6780 + Olaparib; first compound 0.08 µM) | relative viability (AGI-6780 + Olaparib; first compound 0.253 µM) | relative viability (AGI-6780 + Olaparib; first compound 0.8 µM) | relative viability (AGI-6780 + Olaparib; first compound 2.53 µM) | relative viability (AGI-6780 + Olaparib; first compound 8 µM) | relative viability (AGI-6780 + Alpelisib; first compound 0.08 µM) | relative viability (AGI-6780 + Alpelisib; first compound 0.253 µM) | relative viability (AGI-6780 + Alpelisib; first compound 0.8 µM) | relative viability (AGI-6780 + Alpelisib; first compound 2.53 µM) | relative viability (AGI-6780 + Alpelisib; first compound 8 µM) |
| --- | --- | --- | --- | --- | --- | --- | --- | --- | --- | --- | --- | --- | --- | --- | --- | --- | --- | --- | --- | --- |
| NCI-H2085 | 1.04 | 1.09 | 1.02 | 1.08 | 1.13 | 0.935 | 0.963 | 0.911 | 1.14 | 0.906 | 0.823 | 0.739 | 0.738 | 0.849 | 0.761 | 0.965 | 0.978 | 0.976 | 0.949 | 0.885 |
| NCI-H2087 | 0.824 | 0.958 | 0.77 | 0.997 | 0.879 | 0.702 | 0.637 | 0.696 | 0.636 | 0.754 | 0.674 | 0.563 | 0.524 | 0.53 | 0.637 | 1.17 | 1.1 | 1.15 | 0.983 | 1.14 |
| NCI-H2126 | 1.17 | 1.07 | 1.11 | 1.09 | 1.09 | 0.743 | 0.649 | 0.616 | 0.676 | 0.768 | 0.981 | 0.895 | 0.914 | 0.84 | 0.959 | 0.812 | 0.72 | 0.767 | 0.696 | 0.741 |
| NCI-H2228 | 1.11 | 1.07 | 0.811 | 0.896 | 0.886 | 0.338 | 0.343 | 0.384 | 0.34 | 0.391 | 0.686 | 0.769 | 0.591 | 0.41 | 0.736 | 0.904 | 0.831 | 0.563 | 0.618 | 0.635 |
| NCI-H2347 | 0.557 | 0.947 | 0.858 | 1.23 | 1.19 | 0.44 | 0.439 | 0.428 | 0.448 | 0.454 | 0.564 | 0.561 | 0.569 | 0.597 | 0.592 | 1 | 0.954 | 0.691 | 1 | 1.13 |
| NCI-H2405 | 0.972 | 0.978 | 0.925 | 0.798 | 1.01 | – | 1.05 | 0.902 | 0.975 | 1.05 | – | 0.85 | 0.776 | 0.838 | 0.758 | 0.895 | 0.824 | 0.506 | – | 0.767 |
| NCI-H3122 | 1.11 | 1 | 1.05 | 1.05 | 0.999 | 0.209 | 0.199 | 0.191 | 0.195 | 0.185 | 0.608 | 0.626 | 0.725 | 0.706 | 0.649 | 0.876 | 0.859 | 0.892 | 0.633 | 0.822 |
| PC-3 [JPC-3] | 0.816 | 0.796 | 0.753 | 0.856 | 0.782 | – | 1.08 | 1.26 | 1.19 | 0.987 | – | 1.09 | 1.11 | 1.18 | 0.962 | 1.02 | 1.02 | 0.976 | 0.983 | 1.02 |
| PC-14 | 0.899 | 0.71 | 0.917 | 0.793 | 0.934 | 0.143 | 0.147 | 0.141 | 0.16 | 0.134 | 0.378 | 0.282 | 0.234 | 0.318 | 0.276 | 0.947 | 0.986 | 0.944 | 0.913 | 0.961 |
| RERF-LC-KJ | 1.06 | 1.16 | 1.15 | 0.798 | 1.09 | 0.497 | 0.466 | 0.469 | 0.497 | 0.466 | 0.928 | 0.892 | 0.943 | 0.906 | 0.878 | 0.784 | 0.824 | 0.779 | 0.672 | 0.75 |
| SK-LU-1 | 1.25 | 1.45 | 0.965 | 1.12 | 1.4 | 0.981 | 0.93 | 0.765 | 0.984 | 1.11 | 0.506 | 0.482 | 0.349 | 0.402 | 0.456 | 0.957 | 0.906 | 0.797 | 1 | 1.02 |
| SW 1573 | 1.01 | 1.1 | 0.915 | 0.69 | 0.879 | 0.866 | 0.787 | 0.921 | – | 0.874 | 0.578 | 0.481 | 0.525 | 0.426 | 0.465 | 0.876 | 0.843 | 0.76 | 0.649 | 0.554 |
| UMC-11 | 0.671 | 0.712 | 1.06 | – | 1.04 | 0.793 | 0.809 | 0.816 | – | 0.868 | 0.393 | 0.38 | 0.4 | – | 0.434 | 0.938 | 0.866 | 1.07 | – | 0.947 |
